{"source": "patent US11981711B2", "about": "“Methods of treating spinal cord injury using a chondroitin sulfate proteoglycan (CSPG) reduction peptide (CRP) comprising a cell membrane penetrating domain, a CSPG binding domain, and a lysosome targeting domain” (The Cleveland Clinic Foundation, priority 2017, dated 2024)", "key": {"perineuronal nets (PNN) [1]": {"tested_on": "perineuronal nets (PNN)", "test": "Perineuronal nets (WFA staining) in lumbosacral spinal cord after T8 SCI", "assay_type": "in vivo, rat", "settings": "3 months post SCI; vs scrambled peptide", "source_text": "(A, B) Representative L4 spinal cord transverse images show CRP treatment reduces overall PNN in grey matter of lumbar spinal cord neurons at 3 months post SCI. Notice areas with clear decreased WFA staining of the PNN (asterisk). […] (E, F) Representative higher power immunostaining images of the ventral horn of\ntransverse L4 sections show the strong PNN intensity (arrow) surrounding the NeuN+ cells in scr treated SCI rats (E), while CRP treatment reduces them (F). *, P<0.05 when compared to the scr treatment. N=8 per group."}, "spinal cord injury (SCI) [2]": {"tested_on": "spinal cord injury (SCI)", "test": "Bladder function after chronic SCI, CRP from two months after SCI", "assay_type": "in vivo, rat", "source_text": "(§1) In this Example, the CRP has been applied in a preclinical rat model to test the efficacy of the treatment of spinal cord injury (SCI). The injury was made at thoracic 8 level using contusive injury device. The contusive SCI is the most clinical relevance among all experimental SCI models. We have assessed both motor and bladder control as functional outcomes and analyzed anatomical evidences to support these findings. We also selected sub-acute phase (ONE-DAY after SCI) and chronic phase (TWO-MONTHs after SCI) to start our treatment.\n(§2) The above were followed up with studies to evaluate the treatment effects of CRP in chronic SCI. The chronic SCI is not only way more challenge to be repaired but also is the clinical status of the majority of patients with SCI.\nThe box area indicates the bursting activity."}, "5HT fibers": {"tested_on": "5HT fibers", "test": "5HT fiber sprouting in lumbar cord after chronic SCI", "assay_type": "in vivo, rat", "settings": "vs scrambled peptide"}, "spinal cord injury (SCI) [3]": {"tested_on": "spinal cord injury (SCI)", "test": "Bladder function (voiding, CMG, EUS EMG) after T8 contusive SCI, sub-acute CRP treatment", "assay_type": "in vivo, rat", "source_text": "as §1\n(§3) Furthermore CRP can efficiently improve locomotion and bladder electromyography (EMG) activities and voiding patterns after SCI.\n(A) Representative cystometrograms (CMG) with micturition (voiding) events (indicated by asterisk) for spinal-intact, SCI+scrambled peptide (scr) and SCI+CRP groups at 3 months post-SCI. […] N=6 to 8 per group.\n(A) Representative cystometrograms (CMG) with external urethral sphincter (EUS) electromyogram (EMG) recordings at micturition events for spinal-intact, SCI+scrambled peptide (scr) and SCI+CRP groups at 3 months post-SCI. […] The red dot indicates bursting activity. **, P<0.01; ***, P<0.001 when compared to the spinal-intact group; +, P<0.05, ++, P<0.01; +++, P<0.001 when compared to the scr group. N=6 to 8 per group."}, "spinal cord injury (SCI) [4]": {"tested_on": "spinal cord injury (SCI)", "test": "Locomotion (BBB 21-point score) and gait after chronic SCI, treatment from two months after SCI", "assay_type": "in vivo, rat", "source_text": "Basso, Beattie, and Bresnahan (BBB) 21-point scoring test is used as the locomotion assessment after SCI. SCI causes significant deficits on locomotion function as indicated by the significant drop of BBB scores from 21 of the normal rats. […] However, ISP treatment slightly decreases BBB scores from 11.667±0.211 (two months after SCI) to 11.00±0.577 (two months plus 42 days after SCI) (A).\nas §1, §2"}, "[5]": {"tested_on": "serotonin (5-HT) fibers and traced fibers from brain stem and red nuclei", "test": "Axon sprouting below the lesion after SCI, sub-acute CRP treatment", "assay_type": "in vivo, rat", "source_text": "as §3\nIn particular, 5HT immunoreactivity in lumbosacral level after SCI. […] (G, H) Representative images with double staining of […]"}, "[6]": {"tested_on": "chondroitin sulfate proteoglycan (CSPG)", "test": "CSPG expression around the spinal cord lesion after contusive SCI, treatment from one day after SCI", "assay_type": "in vivo, rat", "source_text": "as §1, §3"}, "perineuronal nets (PNN) [7]": {"tested_on": "perineuronal nets (PNN)", "test": "PNN (WFA) in lumbar cord after chronic SCI", "assay_type": "in vivo, rat"}, "Neu7-produced CSPGs": {"tested_on": "Neu7-produced CSPGs", "test": "Reduction of CSPG produced by Neu7 cells", "assay_type": "cell-based"}, "spinal cord injury (SCI) [8]": {"tested_on": "spinal cord injury (SCI)", "test": "Locomotion and gait after T8 contusive SCI, sub-acute CRP treatment", "assay_type": "in vivo, rat", "source_text": "as §1, §3\nIn particular, FIG. 26A-G show Kinematics assessment in SCI rats. (A) Representative total of hindlimb movement trajectories for spinal-intact, SCI+scrambled peptide (scr) and SCI+CRP groups at 3 months post-SCI. […] N=6 to 8 per group."}, "sciatic nerve injury": {"tested_on": "sciatic nerve injury", "test": "Gait after complete sciatic nerve transection with peripheral nerve allograft, CRP treatment", "assay_type": "in vivo", "settings": "3 months after complete sciatic nerve transection, subcutaneous once per day, vs vehicle", "source_text": "The representative 2D trajectory and improved kinematics parameters indicated CRP treated animals improved the stepping more toward to what the uninjured limb did, while compared to the vehicle treated animals. The CRP was delivered through subcutaneous injection near the injured site (once per day) staring immediately after surgery for 3 months."}, "[9]": {"settings": "3 months post-SCI, T8 SCI, vs scrambled peptide"}, "[10]": {"settings": "5 months post SCI vs two months post SCI (beginning of treatment)"}}, "data": [{"substance": "YGRKKRRQRRR-PKPRVTWNKKGKKVNSQRF-KFERQKILDQRFFE (NYGRKKRRQRRRPKPRVTWNKKGKKVNSQRFKFERQKILDQRFFEC) [CRP]", "values": [{"measurement": "PNN at L4 and L6/S1 levels", "setting": "perineuronal nets (PNN) [1]", "result": "significant reduction of PNN"}, {"measurement": "hyperactive bladder (CMG)", "setting": "spinal cord injury (SCI) [2]; 3 months of treatment starting at 2 months post SCI", "result": "reduce hyperactive bladder"}, {"measurement": "EUS bursting activity during the void period", "setting": "spinal cord injury (SCI) [2]; chronic SCI, vs scrambled peptide", "result": "improve EUS bursting activity"}, {"measurement": "voiding patterns", "setting": "spinal cord injury (SCI) [2]; subcutaneous injection beginning two-month after SCI", "result": "significantly improves"}, {"measurement": "5HT+ nerve fibers sprouting in lumbosacral level", "setting": "5HT fibers", "result": "enhance 5HT+ nerve fibers sprouting"}, {"measurement": "EUS bursting activity (EUS EMG during the void)", "setting": "spinal cord injury (SCI) [3]; [9]", "result": "improves EUS bursting activity"}, {"measurement": "bladder capacity (CMG)", "setting": "spinal cord injury (SCI) [3]; [9]", "result": "smaller bladder capacity"}, {"measurement": "hyperactive bladder (CMG)", "setting": "spinal cord injury (SCI) [3]; [9]", "result": "reduces hyperactive bladder"}, {"measurement": "voiding pressure (CMG)", "setting": "spinal cord injury (SCI) [3]; [9]", "result": "lower voiding pressure"}, {"measurement": "number and amplitude of non-voiding contraction (overactive bladder)", "setting": "spinal cord injury (SCI) [3]; after SCI, sub-acute treatment", "result": "reduction of both the number and amplitude of non-voiding contraction"}, {"measurement": "residual volume and volume per void", "setting": "spinal cord injury (SCI) [3]; after SCI, sub-acute treatment", "result": "reducing residual volume and volume per void toward normal condition"}, {"measurement": "voiding patterns", "setting": "spinal cord injury (SCI) [3]; after SCI, sub-acute treatment", "result": "improves voiding patterns"}, {"measurement": "external urethral sphincter (EUS) activity: number of burst, EMG amplitude, coordination with detrusor contraction", "setting": "spinal cord injury (SCI) [3]; during the void period, sub-acute treatment", "result": "improving external urethral sphincter (EUS) activity"}, {"measurement": "BBB locomotion scale", "setting": "spinal cord injury (SCI) [4]; [10]", "result": "significant increases in BBB locomotion scale"}, {"measurement": "stepping kinematic of both hindlimbs (2D trajectory patterns)", "setting": "spinal cord injury (SCI) [4]; [10]", "result": "improved stepping kinematic of both hindlimbs"}, {"measurement": "average increases in BBB scores", "setting": "spinal cord injury (SCI) [4]; by two months plus 42 days after SCI, treatment starting two months after SCI", "result": "3.0±0.365"}, {"measurement": "BBB score", "setting": "spinal cord injury (SCI) [4]; two months after SCI (start of treatment)", "result": "11.75±0.164"}, {"measurement": "BBB score", "setting": "spinal cord injury (SCI) [4]; two months plus 42 days after SCI, treatment starting two months after contusive SCI", "result": "14.33±0.211"}, {"measurement": "nerve sprouting below lesion from neuron in brain stem and red nucleic", "setting": "[5]; after SCI, sub-acute treatment", "result": "enhances nerve sprouting below lesion"}, {"measurement": "sprouting of serotonin (5-HT) fibers below lesion", "setting": "[5]; after SCI, sub-acute treatment", "result": "enhances sprouting of serotonin (5-HT) fibers"}, {"measurement": "immunoreactivity of 5HT fibers at L4 and L6/S1 levels", "setting": "[5]; severe contusive SCI, vs scrambled peptide", "result": "significantly increases immunoreactivity of 5HT fibers"}, {"measurement": "CSPG", "setting": "[6]; three months after SCI, sub-acute treatment", "result": "significantly decreased CSPG"}, {"measurement": "CSPG in lesion epicenter and adjacent tissue", "setting": "[6]; two weeks after contusive SCI, treatment starting one day after SCI, vs vehicle", "result": "significantly decreases SCI-induced increases in CSPG"}, {"measurement": "PNN (WFA+) in lumbar cord", "setting": "perineuronal nets (PNN) [7]", "result": "robustly decreased PNN"}, {"measurement": "dosage dependence of CSPG reduction", "setting": "Neu7-produced CSPGs; Neu7 cells", "result": "dosage response"}, {"measurement": "CSPG produced by Neu7 cells", "setting": "Neu7-produced CSPGs; compared with ChABC", "result": "significantly reduces CSPG produced by Neu7 cells"}, {"measurement": "gait pattern parameters (kinematics, hindlimb trajectories)", "setting": "spinal cord injury (SCI) [8]; 3 months post-SCI, vs scrambled peptide", "result": "significantly improved several parameters of gait pattern"}, {"measurement": "motor function recovery", "setting": "spinal cord injury (SCI) [8]; out to 91 days post-contusion, sub-acute treatment", "result": "significantly promotes motor function recovery"}, {"measurement": "stepping performance of hindlimbs", "setting": "sciatic nerve injury", "result": "improved the stepping performance of hindlimbs"}]}]}
